Converted amounts (≈) assume the structure as drawn. “Also recorded” adds a separate entry of the source.
What was measured:
[1] = test system: echinocandin-resistant C. albicans strain (DPL15; FKS1^T1922C/FKS1^T1922C); experiment: Caspofungin potentiation dose-response assay in echinocandin-resistant strain; conditions: sub-inhibitory caspofungin (3 µg/mL); YPD, 30 °C, 48 h
HepG2-fLuc cells = experiment: HepG2 / C. albicans co-culture: HepG2 survival by luminescence
[2] = test system: C. albicans (TEF1p-GFP) in J774A.1 cells; experiment: Visualization of C. albicans filamentation in macrophages; conditions: 4 h incubation; 0.94, 7.5 or 30 µM
C. albicans (CaSS1) = experiment: C. albicans growth inhibition, two-fold dose-response assay; conditions: for MIC80: Candida albicans, 48 h, read-out: C. albicans MIC80; for whole-cell antifungal activity against C. albicans / concentration at which bioactivity was retained: 5% CO2
[3] = test system: J774A.1 cells infected with C. albicans (SC5314); experiment: Macrophage killing assay; conditions: for macrophage viability in co-culture: 30 µM; for IC50: Mus musculus, J774.A1, 24 h, read-out: IC50 of rescuing macrophage viability
[4] = test system: C. albicans Yck2 kinase domain; experiment: biochemical; format: biochemical, Candida albicans; conditions: Ratio of HsCK1α IC50 / CaYck2 IC50
human CK1α = human CK1α (Homo sapiens, UniProt P48729); experiment: HsCK1α kinase inhibition assay; format: biochemical
human CK1α, sequence (P48729 whole entry, the tested form may be a part): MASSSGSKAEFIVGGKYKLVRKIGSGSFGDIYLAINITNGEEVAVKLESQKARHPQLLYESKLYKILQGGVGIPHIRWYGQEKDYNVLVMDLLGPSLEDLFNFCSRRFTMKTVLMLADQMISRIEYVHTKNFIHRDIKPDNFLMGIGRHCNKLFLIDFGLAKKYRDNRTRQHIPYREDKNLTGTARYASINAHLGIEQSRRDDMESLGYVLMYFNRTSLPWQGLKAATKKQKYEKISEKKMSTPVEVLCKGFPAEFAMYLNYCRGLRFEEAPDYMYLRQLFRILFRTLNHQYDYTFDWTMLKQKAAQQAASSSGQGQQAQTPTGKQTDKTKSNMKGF

[5] = biological target: T1, C. albicans Yck2 kinase domain (Candida albicans, UniProt A0A1D8PKB4); experiment: biochemical; format: biochemical; conditions: for CaYck2 IC50: two-fold dose-response up to 1 µM, ATP 20 μM (Km)
T1 sequence (A0A1D8PKB4 37-345): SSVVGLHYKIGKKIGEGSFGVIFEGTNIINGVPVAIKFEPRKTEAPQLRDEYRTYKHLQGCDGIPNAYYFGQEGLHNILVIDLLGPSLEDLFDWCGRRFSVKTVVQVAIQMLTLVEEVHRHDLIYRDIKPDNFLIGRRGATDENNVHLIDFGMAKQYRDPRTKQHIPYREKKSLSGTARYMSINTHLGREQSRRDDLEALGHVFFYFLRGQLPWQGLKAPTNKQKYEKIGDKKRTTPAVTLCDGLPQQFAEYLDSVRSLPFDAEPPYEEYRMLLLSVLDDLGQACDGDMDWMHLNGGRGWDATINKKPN

[6] = Mouse liver microsomal stability assay; conditions: mouse liver microsomes; for remaining at 0.5 h, 1 µM: mouse; for metabolic stability category: 30 minutes, 1 μM
[7] = test system: C. albicans (FKS1^T1922C/FKS1^T1922C Eno1-GFP); experiment: HepG2 / C. albicans co-culture: fungal burden by GFP fluorescence
[8] = Tolerability on repeated oral dosing in uninfected mice; conditions: 25 mg/kg once daily over 3 days
[9] = Plasma pharmacokinetic profiling in mice; conditions: female, CD1, mouse, in vivo, po, 25 mg/kg, maximal plasma concentration (Cmax), 25 mg/kg p.o.
[10] = Plasma, kidney and brain exposure in mice; conditions: 50 mg/kg oral
[11] = test system: C. albicans (TEF1p-GFP) in co-culture with J774A.1 cells; experiment: C. albicans growth in co-culture with macrophages; conditions: 16 h post-infection
C. auris = conditions: cited from earlier work
Cryptococcus neoformans = conditions: cited from earlier work
Aspergillus fumigatus = conditions: cited from earlier work
[12] = test system: Nakaseomyces glabratus (formerly referred to as Candida glabrata); conditions: cited from earlier work

Structure (SMILES)	MIC80 (C. albicans (CaSS1))	whole-cell antifungal activity against C. albicans (C. albicans (CaSS1); RPMI, 37 °C)	Fungal selectivity (fold) [4]	IC50 (human CK1α)	IC50 [5]	remaining at 0.5 h, 1 µM [6]	also measured
Fc1ccc(-c2nn3cc(F)ccc3c2-c2ccncc2)cc1 [Compound 2b]	25 µM (≈ 7.68 µg/mL)	robust anti-C. albicans bioactivity	–	–	–	–	reduction in MIC80 upon addition of caspofungin [1]: ≥ 32 fold; concentrations giving mild reduction in HepG2 viability (HepG2-fLuc cells): > 12.5 µM; filamentation of C. albicans [2]: inhibited filamentation; macrophage viability in co-culture [3]: restoring full viability
Fc1ccc(-c2nn3cccc(F)c3c2-c2ccncc2)cc1 [Compound 2m]	25 µM (≈ 7.68 µg/mL)	–	27 fold	–	–	–	–
COc1ccn2c(-c3ccncc3)c(-c3ccc(F)cc3)nc2c1 [Compound 1b]	50 µM (≈ 16 µg/mL)	robust anti-C. albicans bioactivity	3.9 fold	1000 nM	260 nM	2%	–
Cc1ccn2nc(-c3ccc(F)cc3)c(-c3ccncc3)c2c1 [Compound 2f]	–	–	–	2000 nM	–	1%	metabolic stability category [6]: unstable (compound concentration remaining in the microsomal suspension after incubation for 30 minutes was ≤ 50% of the starting concentration (1 μM))
Fc1ccc(-c2nn3cc(C(F)(F)F)ccc3c2-c2ccncc2)cc1 [Compound 2c]	> 100 µM	little to no whole-cell antifungal activity; also recorded: loss of bioactivity	–	–	> 1000 nM	–	CaYck2 IC50 [5]: above the maximum concentration tested
Oc1ccn2nc(-c3ccc(F)cc3)c(-c3ccncc3)c2c1 [Compound 2k]	> 100 µM	no measurable whole-cell activity	–	–	–	–	–
Oc1ccc2c(-c3ccncc3)c(-c3ccc(F)cc3)nn2c1 [Compound 2e]	> 100 µM	no measurable whole-cell activity	–	–	–	–	–
N#Cc1ccn2c(-c3ccncc3)c(-c3ccc(F)cc3)nc2c1 [Compound 1e]	50 µM (≈ 15.7 µg/mL)	robust anti-C. albicans bioactivity	–	–	–	80%	reduction in MIC80 upon addition of caspofungin [1]: ≥ 32 fold; filamentation of C. albicans [2]: inhibited filamentation; concentration clearing the majority of co-cultured C. albicans ([7]; 48 h co-culture with HepG2): 6.25 µM; changes in animal weight or behavior [8]: no changes in animal weight or behavior were observed; macrophage viability in co-culture [3]: restoring full viability; IC50 [3]: 6680 nM; Cmax [9]: ~36 µM; brain penetration [10]: accumulated in brain tissue at levels higher than the systemic circulation
Fc1ccc(-c2nc3cc(C(F)(F)F)ccn3c2-c2ccncc2)cc1 [Compound 1g]	> 100 µM	loss of bioactivity	13 fold	8400 nM	630 nM	84%	–
N#Cc1cccn2nc(-c3ccc(F)cc3)c(-c3ccncc3)c12 [Compound 2o]	–	little to no whole-cell antifungal activity	–	> 15000 nM	> 1000 nM	–	CaYck2 IC50 [5]: above the maximum concentration tested
N#Cc1ccc2c(-c3ccncc3)c(-c3ccc(F)cc3)nn2c1 [Compound 2a]	12.5 µM (≈ 3.93 µg/mL)	robust anti-C. albicans bioactivity	–	–	–	–	reduction in MIC80 upon addition of caspofungin [1]: ≥ 32 fold; filamentation of C. albicans [2]: inhibited filamentation; C. albicans MIC80 (C. albicans (CaSS1); wild-type C. albicans, RPMI, 37 °C, 5% CO2, 48 h): 12.5 µM; changes in animal weight or behavior [8]: no changes in animal weight or behavior were observed; macrophage viability in co-culture [3]: restoring full viability; IC50 [3]: 2170 nM; reduction of C. albicans growth in co-culture [11]: most effective; Cmax [9]: ~15 µM; brain penetration [10]: accumulated in brain tissue at levels higher than the systemic circulation
COc1cccn2nc(-c3ccc(F)cc3)c(-c3ccncc3)c12 [Compound 2n]	25 µM (≈ 7.98 µg/mL)	–	41 fold	4900 nM	120 nM	1%	–
Fc1ccc(-c2nc3cc(C4CC4)ccn3c2-c2ccncc2)cc1 [Compound 1h]	50 to 100 µM (≈ 16.5 to 32.9 µg/mL)	–	–	–	180 nM	0%	concentration at which bioactivity was retained (C. albicans (CaSS1); RPMI, 37 °C): 50 µM
CC(C)(C)c1ccn2c(-c3ccncc3)c(-c3ccc(F)cc3)nc2c1 [Compound 1c]	> 100 µM	–	8.6 fold	6100 nM	700 nM	67%	–
Fc1ccc(-c2nn3ccc(C(F)(F)F)cc3c2-c2ccncc2)cc1 [Compound 2h]	–	little to no whole-cell antifungal activity	–	> 15000 nM	> 1000 nM	–	CaYck2 IC50 [5]: above the maximum concentration tested
Cc1ccn2c(-c3ccncc3)c(-c3ccc(F)cc3)nc2c1 [Compound 1a]	> 100 µM	–	2.6 fold	1700 nM	630 nM	0%	metabolic stability category [6]: unstable (compound concentration remaining in the microsomal suspension after incubation for 30 minutes was ≤ 50% of the starting concentration (1 μM))
COc1ccc2c(-c3ccncc3)c(-c3ccc(F)cc3)nn2c1 [Compound 2d]	12.5 µM (≈ 3.99 µg/mL)	robust anti-C. albicans bioactivity	–	–	–	–	–
Cc1ccc2c(-c3ccncc3)c(-c3ccc(F)cc3)nn2c1 [GW, GW461484A, reference compound]	12.5 µM (≈ 3.79 µg/mL)	–	–	–	–	< 1%	reduction in MIC80 upon addition of caspofungin [1]: ≥ 32 fold; filamentation of C. albicans [2]: inhibited filamentation; antifungal activity (C. auris): possesses antifungal activity; macrophage viability in co-culture [3]: restoring full viability; IC50 [3]: 2050 nM; antifungal activity (Cryptococcus neoformans): possesses antifungal activity; reduction of C. albicans growth in co-culture [11]: most effective; single-agent antifungal activity in vitro (Aspergillus fumigatus): no single-agent antifungal activity was observed; single-agent antifungal activity in vitro [12]: no single-agent antifungal activity was observed; metabolic stability category [6]: unstable (compound concentration remaining in the microsomal suspension after incubation for 30 minutes was ≤ 50% of the starting concentration (1 μM))
CCCc1ccn2c(-c3ccncc3)c(-c3ccc(F)cc3)nc2c1 [Compound 1i]	> 100 µM	–	–	–	–	0%	–
Fc1ccc(-c2nc3cc(F)ccn3c2-c2ccncc2)cc1 [Compound 1f]	50 µM (≈ 15.4 µg/mL)	robust anti-C. albicans bioactivity	–	1400 nM	–	75%	reduction in MIC80 upon addition of caspofungin [1]: ≥ 4 fold; rescue of HepG2 viability (HepG2-fLuc cells; at or above 6.25 µM): partially rescued HepG2 viability; filamentation of C. albicans [2]: inhibited filamentation; C. albicans in co-culture relative to compound-free controls ([7]; at or above 6.25 µM): ~ 50%; macrophage viability in co-culture [3]: restoring full viability
CCc1ccn2c(-c3ccncc3)c(-c3ccc(F)cc3)nc2c1 [Compound 1d]	50 µM (≈ 15.9 µg/mL)	–	3.5 fold	1700 nM	490 nM	0%	concentration at which bioactivity was retained (C. albicans (CaSS1); RPMI, 37 °C): 50 µM
